{"source": "patent US20100331233A1", "about": "“CRYSTAL OF XPA AND ERCC1 COMPLEX AND USES THEREOF” (priority 2007, published 2010)", "target": "T1, central domain of ERCC1 (ERCC196-214) (Homo sapiens, UniProt P07992)", "T1 construct": "His6 (N); made in house; host or cells: E. coli BL21(DE3)", "T1 sequence (P07992 96-214)": "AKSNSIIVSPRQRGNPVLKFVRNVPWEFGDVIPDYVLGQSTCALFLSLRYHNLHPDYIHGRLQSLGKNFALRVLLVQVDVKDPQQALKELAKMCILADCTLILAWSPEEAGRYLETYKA", "assay": "Competitive binding equilibrium titrations, fluorescence anisotropy of 6FAM-labeled single-stranded 40mer DNA", "protocol": "Binding of a 6FAM-labeled single-stranded DNA 40mer to the central domain of ERCC1 was monitored by fluorescence polarization of the labeled DNA. DNA binding activity is plotted as a function of added XPA67-80 inhibitor. The theoretical curve given by Eq. 9 (solid line) corresponds to the best fit of the data to the dissociation equilibrium constant of 300 nM for the ERCC1-XPA complex.\nCompetitive binding equilibrium titrations. The equilibrium titrations were performed in a binding buffer containing 20 mM Tris, pH 8.0, 20 mM NaCl, 2 mM betamercaptoethanol. The concentrations of single-stranded 5′ 6-FAM-labeled DNA (5′-CCGGTGGCCAGCGCTCGGCG(T)20; SEQ ID NO:9) and ERCC196-214 were 50 nM and 2.33 μM, respectively, the concentration of the XPA peptide was varied from 0 to 30 μM (FIG. 7). Fluorescence anisotropy measurements were performed as previously reported (Tsodikov et al., 2005). Increasing XPA peptide concentration above 30 μM caused an increase in fluorescence anisotropy and quenching of fluorescence due to nonspecific interactions with the peptide, observed in the presence or absence of ERCC1 (data not shown).\nThe simplest binding model used in the data analysis consisted of two competitive equilibria, binding of XPA peptide and of the single-stranded 6FAM-labeled 40-mer DNA to the central domain of ERCC1. This model is consistent with the fact that at sufficiently high XPA concentration, the fluorescence anisotropy signal approaches that of unbound DNA. Therefore the two binding equilibria could be written as:\nwhere E, D, X represent the ERCC1, DNA and XPA species, respectively. ED and EX represent ERCC1-DNA and ERCC1-XPA complexes, and KDNA and KXPA are the observed equilibrium association constants, defined in terms of the equilibrium concentrations of the species from Eqs. (2a) and (2b) as:\nThe approximation made in Equation (4b) is due to the large excess of ERCC1 over DNA at the experimental conditions. It was assumed that each single-stranded 40-mer DNA oligonucleotide contains only one binding site for ERCC1. Because the central domain of ERCC1 occludes 10-15 nucleotides upon binding DNA (1), with a reasonable approximation, a maximum of 2-3 ERCC1 molecules could simultaneously bind to one DNA molecule without significant cooperativity. In this analysis, a value of (KDNA)−1=1.5 μM was used, obtained from the direct titration of ERCC1 at constant concentration (50 nM) of the same DNA oligomer, using the same single site approximation (1). Therefore the value of the equilibrium binding constant for XPA-ERCC1 complex formation, KXPA, should be unaffected by the stoichiometry of ERCC1-DNA binding.\nThe system of Eqs. 4a, 4b and 4c yields expressions for [E], [X] and [D], which are then used to determined the fraction of bound DNA species, f, as follows:\nThe observed fluorescence anisotropy, r, is then given by\nwhere r0 and rmax are fluorescent anisotropy values of unbound and fully bound DNA, respectively. […]\nXPA competes with single-stranded DNA for binding to ERCC1. Because XPA binds in the groove on ERCC1 (FIG. 2) that was previously implicated in DNA binding activity (Tsodikov et al., 2005), it was determined whether or not XPA competes with single-stranded DNA for binding to ERCC1. DNA binding activity was measured by monitoring fluorescence anisotropy, using single-stranded 40mer oligonucleotide labeled on the 5′ end with 6-carboxyfluorescein. […]", "note": "“Also recorded” adds a separate entry of the source. No end group written: not given here."}
{"sequence": "KIIDTGGGFILEEE [XPA67-80]", "values": [{"measurement": "affinity for central domain of ERCC1 relative to single stranded DNA", "result": "approximately 3 fold"}, {"measurement": "Kd", "setting": "best fit of competition titration to Eq. 9, 50 nM DNA, 2.33 μM ERCC196-214, read-out: dissociation equilibrium constant (Kd) of the XPA-ERCC1 complex", "result": 300, "unit": "nM"}, {"measurement": "EC50 for binding of XPA67-80", "setting": "competition with 6FAM single-stranded 40mer DNA, accurate measurement precluded by quenching", "result": "in the micromolar range"}, {"measurement": "competition with single-stranded DNA for binding to ERCC1", "setting": "fluorescence anisotropy / polarization", "result": "does compete with DNA for binding to ERCC1; also recorded: competitive inhibitor"}, {"measurement": "binding of peptide to DNA", "setting": "single-stranded 40mer, fluorescence anisotropy", "result": "does not detectably bind to DNA"}]}
